Assay [1] deals with T1, RORγ ligand binding domain (Homo sapiens, UniProt P51449). Nature of the assay: RORγ radioligand competition binding assay (SPA). The conditions noted are these: competition with tritiated 2-(4-(ethylsulfonyl)phenyl)-N-(4-(2-(methoxymethyl)phenyl)thiophen-2-yl)acetamide (25 nM), hRORγ LBD. An excerpt: RORγ Radioligand Competition Binding Assay The aim of this assay is to identify compounds which bind to the RORγ ligand binding domain, by competing with tritiated 2-(4-(ethylsulfonyl)phenyl)-N-(4-(2-(methoxymethyl)phenyl)thiophen-2-yl)acetamide. Human RORγ (Ligand Binding Domain (RORγ LBD) was expressed in E. coli (BL21DE3 Star) as a fusion protein: N-6×HN-Avi-GST-TCS-hRORγ LBD (S258-K518) subcloned into pET24a(+). The LBD (258-518) is underlined in the protein sequence: The scintillation proximity assay (SPA) was run in white polystyrene flat-bottom 384-well plates (Greiner, cat. No. 781075). Assays were carried out in 40 μl reaction volumes. Various concentrations of test ligands in 0.4 microlitres of DMSO were added to assay plates using an acoustic liquid dispenser. 4 nM purified N-(HN)6-GST-TCS-hRORγ (258-518) was mixed with 40 micrograms Yttrium oxide (YOx) glutathione SPA imaging beads in assay buffer (20 mM Tris, 150 mM NaCl, 10% Glycerol, 0.25% CHAPS, 1 mM TCEP) prior to adding 30 microlitres to test ligands. Assay plates were incubated for one hour at room temperature before adding 10 microlitres tritiated 2-(4-(ethylsulfonyl)phenyl)-N-(4-(2-(methoxymethyl)phenyl)thiophen-2-yl)acetamide to test plates in assay buffer (final concentration, 25 nM). Test plates were incubated for 16 hours and read using a LEADseeker Multimodality imaging instrument. The raw data was analysed and IC50 and Ki values for the compounds were calculated using Genedata Screener software. Raw data was transformed to % effect using equation 1: Compound % effect=100*[(X−min)/(max−min)], where X represents the normalized value for the compound based on the Min (vehicle) and Max (reference compound) inhibition controls. The concentration of test ligand that inhibited radioligand binding by 50% (i.e., the IC50) was calculated by plotting the % effect versus test ligand concentration and fitting the data using the Genedata Screener Smart fit algorithm. Ki is calculated from the IC50 value using the equation Ki=IC50/1+[L]/Kd) where [L]=25 nmol/L and Kd=17 nmol/L
In general terms: In a radioligand displacement assay an active substance lowers the binding of a labelled ligand.

The next assay relates to human TH17 cells. Nature of the assay: Inhibition of IL-17 release from human TH17 cells. The class given is cell-based. The settings on record: 96 h; isolated human TH17 cells cultured 4 days, IL-17A in supernatant by HTRF; read-out: pIC50 IL-17 release (converted). The text has this: Inhibition of IL-17 Release from Human TH17 Cells
This test is designed to screen compounds for their inhibitory effect on the release of IL-17 from isolated and cultured human TH17 cells.
Peripheral blood mononuclear cells (PBMC) were isolated from heparin treated human whole blood from healthy donors by density gradient centrifugation. TH17 cells (CD4+CXCR3−CCR6+) were enriched using a human TH17 Cell Enrichment Kit (Stemcell Technologies) according to the manufacturer's protocol. The isolated TH17 cells were activated with aCD3aCD28 beads (MACS Miltenyi) and cultured in X-Vivo15 medium (Lonza) supplemented with L-glutamine, β-mercaptoethanol and a cytokine cocktail consisting of; IL-2, IL-23, IL-1β, IL-6, TGF-β. Cells were seeded at 8000 cells/well in a 384-plate (Corning, #3707) in the presence of compounds or DMSO and cultured for 4 days (37° C., 5% CO2). On day 4 supernatants were collected and IL-17A was measured using a Human IL-17 HTRF Assay kit (Cisbio Bioassays) according to the manufacturer's protocol. The IC50 values for the tested compounds was calculated using Genedata Screener® software (Genedata) using the following calculation method; Compound % effect=100*[(X−min)/(max−min)], where X represents the normalized value for the compound based on the Min (DMSO) and Max (compound 3-(1,3-benzodioxol-5-yl)-1-(3,5-dimethylpiperidin-1-yl)-3-(2-hydroxy-4,6-dimethoxyphenyl)propan-1-one at 10 μM, described in J. R. Hu et al. ACS Med. Chem. Lett. 2013, 4, 79-84) inhibition controls. Results
A general note: TR-FRET usually uses a lanthanide donor and a delayed reading to cut background.

The target in assay [2] is T1, RORγ ligand binding domain. Nature of the assay: RORγ co-factor recruitment assay (FRET). In kind it is biochemical. On the set-up: made in house; host or cells: E. coli BL21DE3 Star. The conditions noted are these: inhibition of recruitment of SRC-1 peptide (NCOA1_677-700) to hRORγ LBD, HTRF read-out. The text has this:
RORγ Co-Factor Recruitment Assay A high throughput coactivator binding assay for the identification of inverse agonists of the recruitment of peptide SRC-1 (NCOA1_677-_700) to the RORγ ligand binding domain was established. The ligand binding domain (LBD) of human RORγ was expressed in E. coli (BL21DE3 Star) as a fusion protein: N-6×HN-MBP-Avi-TCS-hRORγLBD(P260-K518) subcloned into pET24a(+). The LBD (P260-K518) is underlined in the protein sequence: The assay was run in black 384 well plates (Greiner cat no: 784900). Various concentrations of test ligands in 0.1 microlitres DMSO were dispensed to assay plates using an Echo acoustic dispenser. Two pre-mixes were prepared and incubated for 1 h at room temp in the dark. Pre-mix 1 comprised 100 nM Protein (Biotinylated HN-Avi-MBP-TCS-hRORγ (258-518)) and 60 nM Streptavidin APC in assay buffer, 50 mM MOPS pH7.4, 50 mM KF, 0.003% (w/v) CHAPS, 10 mM DTT and 0.01% (w/v) BSA and pre-mix 2 comprised 160 nM biotinylated SRC-1 peptide (NCOA1-677-700) and 20 nM Europium-W8044 labelled Streptavidin in assay buffer. Five microlitres of pre-mix 2 was dispensed to assay plates containing 0.1 microlitres of test compound and was incubated for 15 min prior to adding five microlitres of pre-mix 1. Plates were incubated at rt for 1 hour in the dark, prior to reading in a Pherastar multi-mode plate reader using HTRF filter set (ex 320, em 612 and 665). The FRET signal at 665 nm was divided by the signal at 612 nm and multiplied by 10,000 to generate a signal ratio value for each well. The raw data was transformed to % effect using the equation: Compound % effect=100*[(X−min)/(max−min)], where X represents the normalized value for the compound based on the Min (vehicle) and Max (reference compound) inhibition control. The concentration of test ligand that inhibited the activity by 50% (i.e., the IC50) was calculated by plotting the % effect versus test ligand concentration and fitting the data using the Genedata Screener Smart fit algorithm.

As to `CC(=O)N1Cc2cc(S(C)(=O)=O)ccc2C1C(=O)Nc1ccc(C(N2CCCC2)(C(F)(F)F)C(F)(F)F)cc1` (stereo not drawn) [Example 15, 2-Acetyl-N-{4-[1,1,1,3,3,3-hexafluoro-2-(pyrrolidin-1-yl)propan-2-yl]phenyl}-5-(methylsulfonyl)-2,3-dihydro-1H-isoindole-1-carboxamide], the IC50 was 0.00501 µM in assay [1], 0.00398 µM in the assay with human TH17 cells and 0.0398 µM in assay [2].

Consider `COC(=O)CC(c1ccc(NC(=O)C2NCc3cc(S(C)(=O)=O)ccc32)cc1)(C(F)(F)F)C(F)(F)F` (stereo not drawn) [Example 31, Methyl 4,4,4-trifluoro-3-[4-[(5-methylsulfonylisoindoline-1-carbonyl)amino]phenyl]-3-(trifluoromethyl)butanoate], for which the IC50 in assay [1] is 0.794 µM; in the assay on human TH17 cells, 0.2 µM; in assay [2], 0.2 µM.

For `CC(=O)N1Cc2cc(S(C)(=O)=O)ccc2C1C(=O)Nc1ccc(C(N2CCOCC2)(C(F)(F)F)C(F)(F)F)cc1` (stereo not drawn) [Example 23, 2-Acetyl-N-{4-[1,1,1,3,3,3-hexafluoro-2-(morpholin-4-yl)propan-2-yl]phenyl}-5-(methylsulfonyl)-2,3-dihydro-1H-isoindole-1-carboxamide], the IC50 was 0.02 µM in assay [1], 0.0158 µM in the assay with human TH17 cells and 0.0398 µM in assay [2].

Regarding `CCS(=O)(=O)c1ccc2c(c1)CN(C(C)=O)C2C(=O)Nc1ccc(C(C#N)(C(F)(F)F)C(F)(F)F)cc1` (stereo not drawn) [Example 14, 2-Acetyl-N-[4-(2-cyano-1,1,1,3,3,3-hexafluoropropan-2-yl)phenyl]-5-(ethylsulfonyl)-2,3-dihydro-1H-isoindole-1-carboxamide], the IC50 is 0.00501 µM in assay [1], 0.00251 µM in the assay with human TH17 cells and 0.0398 µM in assay [2].

`CC(=O)N1Cc2cc(S(C)(=O)=O)ccc2C1C(=O)Nc1ccc(C(NCCO)(C(F)(F)F)C(F)(F)F)cc1` (stereo not drawn) [Example 21, 2-Acetyl-N-(4-{1,1,1,3,3,3-hexafluoro-2-[(2-hydroxyethyl)amino]propan-2-yl}phenyl)-5-(methylsulfonyl)-2,3-dihydro-1H-isoindole-1-carboxamide]: the IC50 in assay [1] was 0.316 µM; in the assay with human TH17 cells it was 0.1 µM; in assay [2] it was 0.126 µM.

For the molecule `CS(=O)(=O)c1ccc2c(c1)CNC2C(=O)Nc1ccc(C(C#N)(C(F)(F)F)C(F)(F)F)cc1` (stereo not drawn) [Example 1, N-[4-(2-Cyano-1,1,1,3,3,3-hexafluoropropan-2-yl)phenyl]-5-(methylsulfonyl)-2,3-dihydro-1H-isoindole-1-carboxamide], the results for the IC50 (in assay [1]; in the assay on human TH17 cells; in assay [2]) were 0.2 µM, 0.1 µM and 0.126 µM, respectively.

Turning to `CC(=O)N1Cc2cc(S(C)(=O)=O)ccc2C1C(=O)Nc1ccc(C(CC(=O)NCCF)(C(F)(F)F)C(F)(F)F)cc1` (stereo not drawn) [Example 41, 2-Acetyl-5-(methylsulfonyl)-N-(4-{1,1,1-trifluoro-4-[(2-fluoroethyl)amino]-4-oxo-2-(trifluoromethyl)butan-2-yl}phenyl)-2,3-dihydro-1H-isoindole-1-carboxamide], the IC50 was 0.794 µM in assay [1], greater than 3.16 µM with human TH17 cells and 0.316 µM in assay [2].

On to `CC(=O)N1Cc2cc(S(C)(=O)=O)ccc2C1C(=O)Nc1ccc(C(CC#N)(C(F)(F)F)C(F)(F)F)cc1` (stereo not drawn) [Example 36, 2-Acetyl-N-{4-[2-(cyanomethyl)-1,1,1,3,3,3-hexafluoropropan-2-yl]phenyl}-5-(methylsulfonyl)-2,3-dihydro-1H-isoindole-1-carboxamide], for which the IC50 in assay [1] is 0.158 µM; with human TH17 cells it was 0.0631 µM; in assay [2] it was 0.1 µM.

For `CCOC(=O)CC(c1ccc(NC(=O)C2c3ccc(S(C)(=O)=O)cc3CN2C(C)=O)cc1)(C(F)(F)F)C(F)(F)F` (stereo not drawn) [Example 37, Ethyl 3-[4-({[2-acetyl-5-(methylsulfonyl)-2,3-dihydro-1H-isoindol-1-yl]carbonyl}amino)phenyl]-4,4,4-trifluoro-3-(trifluoromethyl)butanoate], the IC50 is 0.0158 µM in assay [1], 0.0251 µM with human TH17 cells and 0.1 µM in assay [2].

Turning to `CC(=O)N1Cc2cc(S(C)(=O)=O)ccc2C1C(=O)Nc1ccc(C(CCO)(C(F)(F)F)C(F)(F)F)cc1` (stereo not drawn) [Example 33, 2-Acetyl-5-(methylsulfonyl)-N-{4-[1,1,1-trifluoro-4-hydroxy-2-(trifluoromethyl)butan-2-yl]phenyl}-2,3-dihydro-1H-isoindole-1-carboxamide], the IC50 in assay [1] is 0.251 µM; in the assay on human TH17 cells it was 0.2 µM; in assay [2], 0.158 µM.

Regarding `CC(=O)N1Cc2cc(S(C)(=O)=O)ccc2C1C(=O)Nc1ccc(C(Cc2nc(C)no2)(C(F)(F)F)C(F)(F)F)cc1` (stereo not drawn) [Example 34, 2-Acetyl-N-(4-{1,1,1,3,3,3-hexafluoro-2-[(3-methyl-1,2,4-oxadiazol-5-yl)methyl]propan-2-yl}phenyl)-5-(methylsulfonyl)-2,3-dihydro-1H-isoindole-1-carboxamide], the IC50 was 0.02 µM in assay [1], 0.02 µM in the assay on human TH17 cells and 0.126 µM in assay [2].

Consider `CC(=O)N1Cc2cc(S(C)(=O)=O)ccc2C1C(=O)Nc1ccc(C(c2nnn(C)n2)(C(F)(F)F)C(F)(F)F)cc1` (stereo not drawn) [Example 30, 2-Acetyl-N-{4-[1,1,1,3,3,3-hexafluoro-2-(2-methyl-2H-tetrazol-5-yl)propan-2-yl]phenyl}-5-(methylsulfonyl)-2,3-dihydro-1H-isoindole-1-carboxamide], for which the IC50 is 0.0398 µM in assay [1], 0.0251 µM in the assay with human TH17 cells and 0.126 µM in assay [2].

For the molecule `CNC(=O)N1Cc2cc(S(C)(=O)=O)ccc2C1C(=O)Nc1ccc(C(C#N)(C(F)(F)F)C(F)(F)F)cc1` (stereo not drawn) [Example 4, N^1-[4-(2-Cyano-1,1,1,3,3,3-hexafluoropropan-2-yl)phenyl]-N^2-methyl-5-(methylsulfonyl)-1,3-dihydro-2H-isoindole-1,2-dicarboxamide], the IC50 in assay [1] was 0.0126 µM; with human TH17 cells, 0.00794 µM; in assay [2] it was 0.0631 µM.

The record behind these values is US11034654B2, “2,3-dihydroisoindole-1-carboxamides useful as ROR-gamma modulators” (AstraZeneca AB, priority 2017, dated 2021).
